Laboratory results reported in patent publication US12533360B2, “Inhibition of BRD proteins suppresses the phenotype of uterine fibroids” (The University of Chicago, priority 2021, dated 2026).

Columns and labels:
HuLM cells [1] = assay: Western immunoblot of HuLM cells after BRD inhibition treatment; assay type: cell-based, human; conditions: 0-25 μM, 48 hours
Text: Cells were collected and lysed in RIPA lysis buffer with protease and phosphatase inhibitor cocktail (Thermo Scientific, Waltham, MA, USA), and the protein was quantified using the Bradford method (Bio-Rad Protein Assay kit). The antibodies used were: METTL3 (ab195352, Abcam), YTHDC1 (ab122340, Abcam), YTHDC2 (35440, Cell Signaling), YTHDF2 (ab220163, Abcam), BCL-2 (ab182858, Abcam), FN (26836, Cell Signaling), PCNA (GTX100539, Genetex), BRD2 (5848, cell signaling), BRD3 (ab50818, Abcam), BRD9 (58906, Cell Signaling). The antigen-antibody complex was detected with Trident Femto Western HRP substrate (GeneTex, Irvine, CA, USA). Specific protein bands were visualized using ChemiDoc XRS ? molecular imager (Bio-Rad, Hercules, CA, USA).
HuLM cells were cultured in phenol red-free, 10% fetal bovine serum Dulbecco's Modified Eagle Medium: Nutrient Mixture F-12 at 37° C., 5% CO2 in the absence or presence of the BRD inhibitors I-BRD9 and TP-472 for 48 hours respectively. The concentrations of both inhibitors were used in the range of 0-25 μM. Cells were collected after treatment for Western immunoblot as described above.

[2] = system: immortalized human uterine smooth muscle (UTSM) cells; assay: BRD inhibitor screening by MTT cell proliferation assay, UTSM cells; assay type: cell-based; conditions: 24 hours and 48 hours
Method: (§1) The immortalized human leiomyoma cell line (HuLM) and immortalized human uterine smooth muscle (UTSM) cells were cultured and maintained in phenol red-free, Dulbecco's Modified Eagle Medium: Nutrient Mixture F-12. The cells were grown at 37° C. and 5% CO2 in an incubator with saturating humidity.
(§2) Cell proliferation was measured using a 3-(4,5-dimethylthiazol-2-yl)-2,5-diphenyltetrazolium bromide (MTT) assay. 2×10^4 UTSM or HuLM cells per well were seeded into 12-well tissue culture plates in the absence or presence of each BRD inhibitor from Table 1 for 24 hours or 48 hours. The inhibitors used in this assay were from the Epigenetic Library at the University of Illinois at Chicago. This assay was performed three times in triplicate.

[3] = system: immortalized human leiomyoma cell line (HuLM); assay: BRD inhibitor screening by MTT cell proliferation assay, HuLM cells; assay type: cell-based; conditions: 24 hours and 48 hours
Method: as §1, §2

HuLM cells [4] = assay: RNA-sequencing / transcriptome analysis of treated HuLM cells; assay type: cell-based, human; conditions: 5 μM, 48 hr
Method: To determine the mechanism underlying the inhibitory effect of BRD9 inhibition on the UFs, the HuLM cells were treated with BRD9 inhibitor I-BRD9 (5 μM, n=4), TP-472 (5 μM, n=3), and DMSO vehicle control (n=4) for 48 hr. RNA was isolated using Trizol. RNA quality and quantity were assessed using the Agilent bio-analyzer. Strand-specific RNA-SEQ libraries were prepared using a TruSEQ total RNA-SEQ library protocol (Illumina provided). Library quality and quantity were assessed using the Agilent bio-analyzer and libraries were sequenced using an Illumina NovaSEQ6000 (illumine provided reagents and protocols).
A variety of R packages was used for this analysis. All graphics and data wrangling were handled using the tidyverse suite of packages (available from tidyverse.org). All packages used are available from the Comprehensive R Archive Network (CRAN), Bioconductor.org, or GitHub. The reads were mapped to the human reference transcriptome using STAR, version 2.6.1d, as previously described (Dobin et al., Bioinformatics 29 (1):15-21 (2013)). The quality of raw reads, as well as the results of STAR mapping, are generated using fastqc (available from bioinformatics.babraham.ac.uk/projects/fastqc/) and multiqc (available from multiqc.info). Raw reads were mapped to the human reference transcriptome using Salmon, version 1.4.0 (available from combine-lab.github.io/salmon/). After reading mapping with Salmon, Bioconductor (available from bioconductor.org/packages/release/bioc/html/tximport) was used to read Salmon outputs into the R environment. Annotation data from Gencode V34 was used to summarize data from transcript-level to gene-level.

UTSM and HuLM cells = assay: Cell proliferation by trypan blue exclusion assay, HuLM versus UTSM cells; assay type: cell-based, human; conditions: 1-25 μM, 48 hours
Method: Cell proliferation was measured using trypan blue exclusion assay. UTSM and HuLM cells (2×10^4 cells per well) were seeded into 12-well tissue culture plates. After 24 hours the cells were cultured in the absence or presence of the BRD inhibitor I-BET762 or (+)-JQ1 at a dose range from 1-25 μM for 48 hours. DMSO was used as a vehicle control. Cells were trypsinized, collected by centrifuge, and resuspended in serum-free medium. Equal volumes of 0.4% trypan blue and cell suspension were mixed and cells were counted using a hemacytometer.

Compound | expression of METTL3 (HuLM cells [1]) | expression of YTHDC1 (HuLM cells [1]) | expression of YTHDC2 (HuLM cells [1]) | fibronectin (FN) levels (HuLM cells [1]) | levels of PCNA (marker for cell proliferation) (HuLM cells [1]) | myometrial (UTSM) cell proliferation [2] | UF (HuLM) cell proliferation [3] | Hallmark analysis: pathway alteration in response to inhibition of BRD (HuLM cells [4]) | pathways altered (bioinformatic analysis of RNA sequencing) (HuLM cells [4]) | expression of YTHDF2 (HuLM cells [1]) | expression of anti-apoptosis protein BCL-2 (HuLM cells [1]) | cellular proliferation, UF cells versus myometrium cells (UTSM and HuLM cells)
CC(=O)c1cc(-c2cc(C(=O)NC3CC3)ccc2C)c2ncccn12 [TP-472] | dose-dependent downregulation | dose-dependent downregulation | dose-dependent downregulation | decreased FN levels | decreasing the levels of PCNA | not myometrial cell proliferation | selectively inhibited UF | E2F, MYC Target, G2M checkpoint, and mitotic spindle pathways | altered the pathways related to biological processes, transcriptional factors | – | – | –
CCn1cc(-c2cccc(C(F)(F)F)c2)c2sc(C(=N)NC3CCS(=O)(=O)CC3)cc2c1=O [I-BRD9] | – | dose-dependent downregulation | dose-dependent downregulation | decreased FN levels | decreasing the levels of PCNA | not myometrial cell proliferation | selectively inhibited UF | E2F, MYC Target, G2M checkpoint, and mitotic spindle pathways | altered the pathways related to biological processes, transcriptional factors | dose-dependent downregulation | increased the expression of the anti-apoptosis protein BCL-2 | –
Cc1cc(=O)n(C)c2cc(N3C(=O)CC[C@H](NS(=O)(=O)CC(C)C)[C@H]3c3ccc(Cl)cc3)ccc12 [LP99] | – | – | – | – | – | not myometrial cell proliferation | selectively inhibited UF | – | – | – | – | –
Cn1cc(CCn2cnc(-c3cnn(C)c3)c2-c2ccc(C#N)cc2)cn1 [BAZ2-ICR] | – | – | – | – | – | not myometrial cell proliferation | selectively inhibited UF | – | – | – | – | –
CCCS(=O)(=O)c1nc(NC2CC2)cc(-c2ccc3c(ccn3C3CC(C)(C)NC(C)(C)C3)c2)n1 [NVS-CECR2-1] | – | – | – | – | – | not myometrial cell proliferation | selectively inhibited UF | – | – | – | – | –
CCNC(=O)C[C@@H]1N=C(c2ccc(Cl)cc2)c2cc(OC)ccc2-n2c(C)nnc21 [I-BET762] | – | – | – | – | – | – | – | – | – | – | – | reduced cellular proliferation more potently in UF cells than myometrium cells in a dose dependent manner
